# Experimental data published in ChEMBL document CHEMBL3286226, “Discovery of thienopyrimidine-based FLT3 inhibitors from the structural modification of known IKKβ inhibitors” (Bioorg Med Chem Lett, 2014).
# Columns and labels:
# RAW264.7 [1] = assay: cells; conditions: Mus musculus
# Description: Antiinflammatory activity against mouse RAW264.7 cells assessed as reduction of LPS-induced NO production
# RAW264.7 [2] = system: RAW264.7
# Description: (§1) Antiinflammatory activity against mouse RAW264.7 cells assessed as reduction of LPS-induced TNF-alpha production
# [3] = target: Receptor-type tyrosine-protein kinase FLT3 (Homo sapiens) (UniProt P36888); assay: Inhibition of human Flt3 assessed as residual activity at 10 uM relative to control
# [4] = target: Dual specificity mitogen-activated protein kinase kinase 6 (Homo sapiens) (UniProt P52564); assay: Inhibition of human MKK6 assessed as residual activity at 10 uM relative to control
# [5] = target: Tyrosine-protein kinase JAK1 (Homo sapiens) (UniProt P23458); assay: Inhibition of human JAK1 assessed as residual activity at 10 uM relative to control
# [6] = target: T1, Inhibitor of nuclear factor kappa-B kinase subunit beta (Homo sapiens, UniProt O14920)
# T1 sequence (O14920 whole entry): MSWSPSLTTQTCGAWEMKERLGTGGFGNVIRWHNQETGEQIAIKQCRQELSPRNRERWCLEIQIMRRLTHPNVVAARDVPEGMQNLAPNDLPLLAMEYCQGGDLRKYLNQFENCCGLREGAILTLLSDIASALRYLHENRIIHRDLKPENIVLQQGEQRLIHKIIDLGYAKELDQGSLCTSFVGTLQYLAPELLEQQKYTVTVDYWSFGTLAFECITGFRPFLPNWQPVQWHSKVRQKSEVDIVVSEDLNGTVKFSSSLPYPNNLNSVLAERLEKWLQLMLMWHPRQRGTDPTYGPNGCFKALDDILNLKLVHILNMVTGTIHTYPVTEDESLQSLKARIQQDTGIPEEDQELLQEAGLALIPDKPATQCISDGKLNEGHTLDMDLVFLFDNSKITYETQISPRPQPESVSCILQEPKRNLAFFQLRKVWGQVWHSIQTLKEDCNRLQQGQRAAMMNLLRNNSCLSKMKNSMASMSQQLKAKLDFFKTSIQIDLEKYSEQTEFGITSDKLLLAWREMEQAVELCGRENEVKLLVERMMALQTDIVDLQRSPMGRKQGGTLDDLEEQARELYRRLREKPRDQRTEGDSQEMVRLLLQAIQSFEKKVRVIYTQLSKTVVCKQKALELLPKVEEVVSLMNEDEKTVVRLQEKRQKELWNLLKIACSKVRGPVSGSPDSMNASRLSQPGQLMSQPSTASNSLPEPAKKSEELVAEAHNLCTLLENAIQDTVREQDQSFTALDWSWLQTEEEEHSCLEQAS
# Description: Inhibition of IKKbeta kinase (unknown origin) by Lance ULight system
# [7] = target: T1, Inhibitor of nuclear factor kappa-B kinase subunit beta; remark: listed apart in the source
# Description: (§2) Inhibition of IKKbeta kinase (unknown origin) by Radioisotope system
# [8] = target: Mitogen-activated protein kinase 8 (Homo sapiens) (UniProt P45983); assay: Inhibition of human JNK1alpha1 assessed as residual activity at 10 uM relative to control
# [9] = target: Tyrosine-protein kinase BTK (Homo sapiens) (UniProt Q06187); assay: Inhibition of human BTK assessed as residual activity at 10 uM relative to control
# [10] = target: Mitogen-activated protein kinase 9 (Homo sapiens) (UniProt P45984); assay: Inhibition of human JNK2alpha2 assessed as residual activity at 10 uM relative to control
# [11] = target: T2, Receptor-type tyrosine-protein kinase FLT3 (Homo sapiens, UniProt P36888)
# T2 sequence (P36888 whole entry): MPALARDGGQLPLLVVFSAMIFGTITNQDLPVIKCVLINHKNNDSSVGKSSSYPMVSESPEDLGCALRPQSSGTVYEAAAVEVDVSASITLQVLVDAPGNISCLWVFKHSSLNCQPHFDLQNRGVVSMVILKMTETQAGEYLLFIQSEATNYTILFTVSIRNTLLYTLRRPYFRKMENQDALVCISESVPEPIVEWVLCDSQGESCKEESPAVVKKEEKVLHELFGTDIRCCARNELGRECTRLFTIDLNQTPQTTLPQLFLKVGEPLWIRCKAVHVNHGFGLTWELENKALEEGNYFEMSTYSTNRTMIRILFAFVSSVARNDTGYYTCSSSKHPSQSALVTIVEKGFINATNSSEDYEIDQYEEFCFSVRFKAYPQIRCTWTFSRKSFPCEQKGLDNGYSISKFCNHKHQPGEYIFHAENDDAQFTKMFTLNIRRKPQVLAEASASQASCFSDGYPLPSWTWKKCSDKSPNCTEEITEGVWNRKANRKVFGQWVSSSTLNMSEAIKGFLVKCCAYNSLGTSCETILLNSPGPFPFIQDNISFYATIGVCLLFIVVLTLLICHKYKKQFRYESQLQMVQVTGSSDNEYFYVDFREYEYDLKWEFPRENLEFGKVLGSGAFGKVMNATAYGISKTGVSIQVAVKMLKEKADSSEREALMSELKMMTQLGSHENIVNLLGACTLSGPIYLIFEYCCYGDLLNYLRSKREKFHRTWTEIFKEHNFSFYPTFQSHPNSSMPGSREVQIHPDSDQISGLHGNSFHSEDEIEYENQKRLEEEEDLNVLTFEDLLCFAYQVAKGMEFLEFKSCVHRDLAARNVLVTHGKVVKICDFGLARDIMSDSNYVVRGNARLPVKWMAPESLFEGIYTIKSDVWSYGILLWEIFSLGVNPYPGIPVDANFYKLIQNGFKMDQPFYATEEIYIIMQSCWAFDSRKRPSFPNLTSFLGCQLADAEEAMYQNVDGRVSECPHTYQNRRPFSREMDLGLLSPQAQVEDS
# Description: Inhibition of FLT3 kinase (unknown origin)
# Homo sapiens = organism: Homo sapiens; assay: Inhibition of human PKA assessed as residual activity at 10 uM relative to control
# [12] = target: Mitogen-activated protein kinase 14 (Homo sapiens) (UniProt Q16539); assay: Inhibition of human SAPK2alpha assessed as residual activity at 10 uM relative to control
# [13] = target: Ribosomal protein S6 kinase alpha-5 (Homo sapiens) (UniProt O75582); assay: Inhibition of human MSK1 assessed as residual activity at 10 uM relative to control
# [14] = target: Tyrosine-protein kinase JAK3 (Homo sapiens) (UniProt P52333); assay: Inhibition of human JAK3 assessed as residual activity at 10 uM relative to control
# [15] = target: Mitogen-activated protein kinase 12 (Homo sapiens) (UniProt P53778); assay: Inhibition of human SAPK3 assessed as residual activity at 10 uM relative to control
# [16] = target: Dual specificity mitogen-activated protein kinase kinase 4 (Mus musculus) (UniProt P47809); assay: Inhibition of mouse MKK4 assessed as residual activity at 10 uM relative to control
# [17] = target: MAP kinase-activated protein kinase 2 (Homo sapiens) (UniProt P49137); assay: Inhibition of human MAPKAP-K2 assessed as residual activity at 10 uM relative to control
# [18] = target: Tyrosine-protein kinase Lyn (Homo sapiens) (UniProt P07948); assay: Inhibition of human Lyn assessed as residual activity at 10 uM relative to control
# [19] = target: Rho-associated protein kinase 2 (Homo sapiens) (UniProt O75116); assay: Inhibition of human ROCK-2 assessed as residual activity at 10 uM relative to control
# [20] = target: Mitogen-activated protein kinase 13 (Homo sapiens) (UniProt O15264); assay: Inhibition of human SAPK4 assessed as residual activity at 10 uM relative to control
# [21] = target: Non-receptor tyrosine-protein kinase TYK2 (Homo sapiens) (UniProt P29597); assay: Inhibition of human TYK2 assessed as residual activity at 10 uM relative to control
# [22] = target: Inhibitor of nuclear factor kappa-B kinase subunit alpha (Homo sapiens) (UniProt O15111); assay: Inhibition of human IKKalpha assessed as residual activity at 10 uM relative to control
# [23] = target: Dual specificity mitogen-activated protein kinase kinase 7 (Homo sapiens) (UniProt O14733); assay: Inhibition of human MKK7beta assessed as residual activity at 10 uM relative to control
# RAW264.7 [24] = assay: cells; conditions: Mus musculus; remark: listed apart in the source
# Description: as §1
# [25] = target: Mitogen-activated protein kinase 11 (Homo sapiens) (UniProt Q15759); assay: Inhibition of human SAPK2beta assessed as residual activity at 10 uM relative to control
# [26] = target: Inhibitor of nuclear factor kappa-B kinase subunit beta (Homo sapiens) (UniProt O14920); assay: Inhibition of human IKKbeta assessed as residual activity at 1 uM relative to control
# [27] = target: Tyrosine-protein kinase Lck (Homo sapiens) (UniProt P06239); assay: Inhibition of human Lck assessed as residual activity at 10 uM relative to control
# [28] = target: T1, Inhibitor of nuclear factor kappa-B kinase subunit beta; remark: listed apart in the source
# Description: as §2
# Rho-associated protein kinase 2 (Homo sapiens), sequence (O75116 whole entry, looked up): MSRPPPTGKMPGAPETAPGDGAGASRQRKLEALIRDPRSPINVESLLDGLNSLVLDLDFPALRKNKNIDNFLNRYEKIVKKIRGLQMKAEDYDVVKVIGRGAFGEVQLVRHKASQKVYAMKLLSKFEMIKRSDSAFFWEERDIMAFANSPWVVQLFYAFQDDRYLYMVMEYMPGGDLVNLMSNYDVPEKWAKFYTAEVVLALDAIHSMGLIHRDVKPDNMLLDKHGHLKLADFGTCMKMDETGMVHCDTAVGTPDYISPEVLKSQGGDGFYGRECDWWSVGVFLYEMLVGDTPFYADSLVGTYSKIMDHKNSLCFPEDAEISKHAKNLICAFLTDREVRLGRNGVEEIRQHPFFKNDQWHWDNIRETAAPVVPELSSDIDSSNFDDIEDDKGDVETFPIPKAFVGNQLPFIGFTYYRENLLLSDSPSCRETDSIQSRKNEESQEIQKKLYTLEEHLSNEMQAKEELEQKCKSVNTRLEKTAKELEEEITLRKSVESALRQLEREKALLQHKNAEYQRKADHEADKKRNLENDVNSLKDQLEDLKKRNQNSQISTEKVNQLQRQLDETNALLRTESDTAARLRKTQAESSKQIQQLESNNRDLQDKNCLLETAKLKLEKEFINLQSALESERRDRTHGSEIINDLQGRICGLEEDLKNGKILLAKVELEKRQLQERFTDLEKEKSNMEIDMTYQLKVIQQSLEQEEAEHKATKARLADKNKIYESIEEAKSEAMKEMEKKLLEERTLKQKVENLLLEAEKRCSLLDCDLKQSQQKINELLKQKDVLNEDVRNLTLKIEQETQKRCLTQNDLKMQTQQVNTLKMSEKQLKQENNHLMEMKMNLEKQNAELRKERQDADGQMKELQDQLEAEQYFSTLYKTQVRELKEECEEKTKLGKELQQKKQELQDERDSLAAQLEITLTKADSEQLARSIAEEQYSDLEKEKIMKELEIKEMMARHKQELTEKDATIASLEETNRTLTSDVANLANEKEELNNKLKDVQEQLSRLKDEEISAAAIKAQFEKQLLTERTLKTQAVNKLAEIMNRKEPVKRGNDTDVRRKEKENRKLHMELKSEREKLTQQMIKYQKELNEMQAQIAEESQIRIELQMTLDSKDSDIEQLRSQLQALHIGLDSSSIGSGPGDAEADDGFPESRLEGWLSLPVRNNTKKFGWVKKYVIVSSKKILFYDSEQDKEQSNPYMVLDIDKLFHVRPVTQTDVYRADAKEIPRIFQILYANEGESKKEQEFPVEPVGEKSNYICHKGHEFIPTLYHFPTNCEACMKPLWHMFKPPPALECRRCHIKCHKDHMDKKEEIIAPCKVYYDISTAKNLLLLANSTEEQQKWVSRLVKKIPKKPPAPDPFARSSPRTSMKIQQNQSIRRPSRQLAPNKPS
# Tyrosine-protein kinase BTK (Homo sapiens), sequence (Q06187 whole entry): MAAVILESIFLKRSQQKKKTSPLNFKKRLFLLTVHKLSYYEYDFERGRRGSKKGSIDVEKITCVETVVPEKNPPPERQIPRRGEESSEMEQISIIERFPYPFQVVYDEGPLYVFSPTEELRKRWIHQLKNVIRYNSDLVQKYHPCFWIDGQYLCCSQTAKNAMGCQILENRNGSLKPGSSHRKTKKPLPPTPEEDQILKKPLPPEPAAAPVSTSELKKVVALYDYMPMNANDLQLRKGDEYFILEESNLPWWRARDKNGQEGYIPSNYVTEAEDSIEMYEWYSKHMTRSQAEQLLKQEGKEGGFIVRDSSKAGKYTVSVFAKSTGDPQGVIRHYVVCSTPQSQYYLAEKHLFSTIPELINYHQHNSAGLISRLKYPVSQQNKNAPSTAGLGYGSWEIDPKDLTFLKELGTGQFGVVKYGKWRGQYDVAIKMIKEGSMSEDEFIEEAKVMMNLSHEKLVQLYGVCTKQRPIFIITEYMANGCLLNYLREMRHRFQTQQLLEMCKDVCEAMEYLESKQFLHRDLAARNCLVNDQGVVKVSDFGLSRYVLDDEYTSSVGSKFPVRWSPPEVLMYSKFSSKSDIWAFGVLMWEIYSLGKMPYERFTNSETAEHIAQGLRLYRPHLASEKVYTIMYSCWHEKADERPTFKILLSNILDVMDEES
# Tyrosine-protein kinase JAK3 (Homo sapiens), sequence (P52333 whole entry): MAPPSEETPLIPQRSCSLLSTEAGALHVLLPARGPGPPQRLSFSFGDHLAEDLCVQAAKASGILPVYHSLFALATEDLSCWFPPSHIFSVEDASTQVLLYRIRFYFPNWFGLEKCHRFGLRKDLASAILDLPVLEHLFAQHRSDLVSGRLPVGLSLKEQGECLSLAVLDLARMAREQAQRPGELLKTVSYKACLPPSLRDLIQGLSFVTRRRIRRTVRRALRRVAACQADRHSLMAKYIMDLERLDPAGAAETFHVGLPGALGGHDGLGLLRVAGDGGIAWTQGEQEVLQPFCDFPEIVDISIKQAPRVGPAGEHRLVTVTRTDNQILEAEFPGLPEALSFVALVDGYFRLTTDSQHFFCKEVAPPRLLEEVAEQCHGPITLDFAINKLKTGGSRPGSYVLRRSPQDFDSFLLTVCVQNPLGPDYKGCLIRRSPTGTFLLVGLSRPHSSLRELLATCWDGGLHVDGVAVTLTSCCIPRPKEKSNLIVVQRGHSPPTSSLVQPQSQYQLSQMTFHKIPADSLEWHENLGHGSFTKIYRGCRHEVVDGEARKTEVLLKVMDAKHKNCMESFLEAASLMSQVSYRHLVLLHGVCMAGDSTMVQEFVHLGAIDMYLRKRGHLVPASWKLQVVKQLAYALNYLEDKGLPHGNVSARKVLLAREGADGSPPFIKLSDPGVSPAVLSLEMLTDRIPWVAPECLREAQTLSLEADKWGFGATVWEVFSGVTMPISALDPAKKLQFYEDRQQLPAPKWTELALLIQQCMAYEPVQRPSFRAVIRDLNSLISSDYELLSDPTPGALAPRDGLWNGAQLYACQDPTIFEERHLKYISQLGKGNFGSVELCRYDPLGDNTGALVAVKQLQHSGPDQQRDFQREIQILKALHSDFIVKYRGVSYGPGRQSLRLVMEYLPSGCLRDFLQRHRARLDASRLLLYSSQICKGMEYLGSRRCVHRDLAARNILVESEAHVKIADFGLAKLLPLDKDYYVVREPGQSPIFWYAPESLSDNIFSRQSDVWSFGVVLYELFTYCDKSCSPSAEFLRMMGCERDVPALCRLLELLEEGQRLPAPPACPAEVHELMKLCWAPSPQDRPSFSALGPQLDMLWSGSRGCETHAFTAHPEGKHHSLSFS
# Tyrosine-protein kinase Lyn (Homo sapiens), sequence (P07948 2-512 limits assumed): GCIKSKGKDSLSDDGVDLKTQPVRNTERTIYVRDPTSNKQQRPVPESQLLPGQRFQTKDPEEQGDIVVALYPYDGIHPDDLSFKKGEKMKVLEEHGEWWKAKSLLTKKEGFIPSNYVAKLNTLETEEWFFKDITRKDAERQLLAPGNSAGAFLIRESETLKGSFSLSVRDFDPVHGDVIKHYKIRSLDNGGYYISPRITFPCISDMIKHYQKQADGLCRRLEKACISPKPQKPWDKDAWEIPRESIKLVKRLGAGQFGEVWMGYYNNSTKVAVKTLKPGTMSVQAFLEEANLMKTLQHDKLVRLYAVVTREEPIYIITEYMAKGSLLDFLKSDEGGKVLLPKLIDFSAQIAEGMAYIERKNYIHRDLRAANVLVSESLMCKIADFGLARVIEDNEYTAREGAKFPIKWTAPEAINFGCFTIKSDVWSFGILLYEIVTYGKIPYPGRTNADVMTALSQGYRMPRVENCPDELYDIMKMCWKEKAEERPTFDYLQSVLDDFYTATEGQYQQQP
# Non-receptor tyrosine-protein kinase TYK2 (Homo sapiens), sequence (P29597 whole entry): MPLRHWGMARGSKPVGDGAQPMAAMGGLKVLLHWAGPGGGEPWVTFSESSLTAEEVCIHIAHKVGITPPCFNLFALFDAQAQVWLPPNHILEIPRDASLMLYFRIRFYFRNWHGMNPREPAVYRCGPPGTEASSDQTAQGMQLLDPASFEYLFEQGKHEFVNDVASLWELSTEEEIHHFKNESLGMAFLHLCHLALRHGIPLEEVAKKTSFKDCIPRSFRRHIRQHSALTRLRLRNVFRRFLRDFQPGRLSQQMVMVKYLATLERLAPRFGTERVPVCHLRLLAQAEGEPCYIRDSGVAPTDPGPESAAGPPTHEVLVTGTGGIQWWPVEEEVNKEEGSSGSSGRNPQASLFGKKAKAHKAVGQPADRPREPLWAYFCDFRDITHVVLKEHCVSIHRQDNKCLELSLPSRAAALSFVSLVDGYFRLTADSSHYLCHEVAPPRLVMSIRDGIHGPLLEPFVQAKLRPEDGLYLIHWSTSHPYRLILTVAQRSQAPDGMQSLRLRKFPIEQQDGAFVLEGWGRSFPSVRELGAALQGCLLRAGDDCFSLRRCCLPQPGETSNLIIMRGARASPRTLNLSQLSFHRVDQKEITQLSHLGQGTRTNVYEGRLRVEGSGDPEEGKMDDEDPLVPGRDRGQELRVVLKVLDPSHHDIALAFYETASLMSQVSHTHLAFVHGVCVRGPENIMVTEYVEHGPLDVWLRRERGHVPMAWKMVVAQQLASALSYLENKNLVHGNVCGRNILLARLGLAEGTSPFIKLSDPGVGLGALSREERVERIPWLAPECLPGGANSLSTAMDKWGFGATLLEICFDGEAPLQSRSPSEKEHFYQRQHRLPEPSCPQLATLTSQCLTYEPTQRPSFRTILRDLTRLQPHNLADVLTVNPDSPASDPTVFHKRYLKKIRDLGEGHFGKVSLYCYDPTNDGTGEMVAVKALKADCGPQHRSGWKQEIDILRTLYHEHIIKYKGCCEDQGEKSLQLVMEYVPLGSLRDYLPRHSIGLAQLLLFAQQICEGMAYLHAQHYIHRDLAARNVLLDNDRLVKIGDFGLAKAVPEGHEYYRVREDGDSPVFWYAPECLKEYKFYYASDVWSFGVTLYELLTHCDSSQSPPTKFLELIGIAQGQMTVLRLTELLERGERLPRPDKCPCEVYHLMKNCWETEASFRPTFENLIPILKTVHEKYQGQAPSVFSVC
smiles,measurement,setting,value
O=C1c2ccccc2C(=O)N1Nc1ncnc2scc(-c3cccs3)c12,IC50,RAW264.7 [1],> 10000 nM
same,IC50,RAW264.7 [2],Not Active
CC1=CC(=O)N(Nc2nc(-c3cccs3)nc3scc(-c4ccccc4)c23)C1=O,Activity,[3],8%
same,Activity,[4],99%
same,Activity,[5],103%
same,IC50,[6],> 50000 nM
same,IC50,[7],Not Active
same,Activity,[8],87%
same,Activity,[9],76%
same,Activity,[10],94%
same,IC50,[11],208 nM
same,Activity,Homo sapiens,125%
same,IC50,RAW264.7 [1],750 nM
same,Activity,[12],92%
same,Activity,[13],96%
same,Activity,[14],121%
same,Activity,[15],109%
same,Activity,[16],113%
same,Activity,[17],102%
same,Activity,[18],92%
same,Activity,[19],99%
same,Activity,[20],90%
same,Activity,[21],86%
same,Activity,[22],119%
same,Activity,[23],122%
same,IC50,RAW264.7 [24],1290 nM
same,Activity,[25],98%
same,Activity,[26],116%
same,Activity,[27],86%
CC1=CC(=O)N(Nc2nc(-c3cccs3)nc3scc(-c4cccc(OCCN5CCCCC5)c4)c23)C1=O,Activity,[3],4%
same,Activity,[4],96%
same,Activity,[5],111%
same,Activity,[8],93%
same,Activity,[9],100%
same,Activity,[10],117%
same,IC50,[11],133 nM
same,Activity,Homo sapiens,126%
same,IC50,RAW264.7 [1],2150 nM
same,Activity,[12],96%
same,Activity,[13],102%
same,Activity,[14],112%
same,Activity,[15],99%
same,Activity,[16],112%
same,Activity,[17],94%
same,Activity,[18],81%
same,Activity,[19],96%
same,Activity,[20],100%
same,Activity,[21],87%
same,Activity,[22],98%
same,Activity,[23],108%
same,IC50,RAW264.7 [24],2920 nM
same,Activity,[25],103%
same,Activity,[26],84%
same,Activity,[27],74%
CC1=CC(=O)N(Nc2nc(-c3ccncc3)nc3scc(-c4cccs4)c23)C1=O,IC50,RAW264.7 [1],2110 nM
same,IC50,RAW264.7 [24],> 10000 nM
COc1cccc2nc(-c3cccs3)nc(NN3C(=O)C=C(C)C3=O)c12 [AS-602868],IC50,RAW264.7 [1],4410 nM
same,IC50,RAW264.7 [24],3320 nM
CC1=CC(=O)N(Nc2nc(C3CC3)nc3scc(-c4cccs4)c23)C1=O,IC50,RAW264.7 [1],3120 nM
same,IC50,RAW264.7 [24],4350 nM
COc1cccc(-c2nc(NN3C(=O)C=C(C)C3=O)c3c(-c4cccs4)csc3n2)c1,IC50,RAW264.7 [1],3470 nM
same,IC50,RAW264.7 [24],1240 nM
CC1=CC(=O)N(Nc2nc(-c3cccs3)nc3scc(-c4ccc(OCCN5CCCCC5)cc4)c23)C1=O.Cl,IC50,[7],Not Active
same,IC50,[11],85 nM
same,IC50,RAW264.7 [1],1680 nM
same,IC50,RAW264.7 [24],2140 nM
CC1=CC(=O)N(Nc2nc(-c3cccs3)nc3scc(-c4ccc(O)cc4)c23)C1=O,IC50,[7],Not Active
same,IC50,[11],750 nM
same,IC50,RAW264.7 [1],820 nM
same,IC50,RAW264.7 [24],1320 nM
CC1=CC(=O)N(Nc2nc(-c3ccccc3)nc3scc(-c4cccs4)c23)C1=O,IC50,RAW264.7 [1],3130 nM
same,IC50,RAW264.7 [24],1130 nM
CC1=CC(=O)N(Nc2nc(-c3cccs3)nc3scc(-c4cccc(OCCN(C)C)c4)c23)C1=O,IC50,[6],> 50000 nM
same,IC50,RAW264.7 [1],7540 nM
same,IC50,[28],> 50000 nM
same,IC50,RAW264.7 [24],9880 nM
